According to PubChem BioAssay (NCI):
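Method: 48-hour compound exposure of cells in 96-well plates, five concentrations, linear interpolation of endpoints. TGI: total growth inhibition.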

Tests used:
Assay in all cases: NCI tumour cell line growth inhibition, 48 h
786-0 renal = test system: 786-0 renal
A498 renal = test system: A498 renal
A549 NSCLC = test system: A549 NSCLC
ACHN renal = test system: ACHN renal
CAKI-1 renal = test system: CAKI-1 renal
CCRF-CEM leukemia = test system: CCRF-CEM leukemia
COLO 205 colon = test system: COLO 205 colon
DLD-1 colon = test system: DLD-1 colon
DMS 114 small cell lung = test system: DMS 114 small cell lung
DMS 273 small cell lung = test system: DMS 273 small cell lung
HCC-2998 colon = test system: HCC-2998 colon
HCT-116 colon = test system: HCT-116 colon
HCT-15 colon = test system: HCT-15 colon
HL-60(TB) leukemia = test system: HL-60(TB) leukemia
HOP-18 NSCLC = test system: HOP-18 NSCLC
HOP-62 NSCLC = test system: HOP-62 NSCLC
HOP-92 NSCLC = test system: HOP-92 NSCLC
HT29 colon = test system: HT29 colon
IGROV1 ovarian = test system: IGROV1 ovarian
K-562 leukemia = test system: K-562 leukemia
KM12 colon = test system: KM12 colon
KM20L2 colon = test system: KM20L2 colon
LOX IMVI melanoma = test system: LOX IMVI melanoma
LXFL 529 NSCLC = test system: LXFL 529 NSCLC
M14 melanoma = test system: M14 melanoma
M19-MEL melanoma = test system: M19-MEL melanoma
MALME-3M melanoma = test system: MALME-3M melanoma
MOLT-4 leukemia = test system: MOLT-4 leukemia
NCI-H226 lung = test system: NCI-H226 lung
NCI-H460 lung = test system: NCI-H460 lung
NCI-H522 lung = test system: NCI-H522 lung
OVCAR-4 ovarian = test system: OVCAR-4 ovarian
OVCAR-5 ovarian = test system: OVCAR-5 ovarian
OVCAR-8 ovarian = test system: OVCAR-8 ovarian
RPMI-8226 leukemia = test system: RPMI-8226 leukemia
RXF 393 renal = test system: RXF 393 renal
SF-268 CNS = test system: SF-268 CNS
SF-295 CNS = test system: SF-295 CNS
SF-539 CNS = test system: SF-539 CNS
SK-MEL-2 melanoma = test system: SK-MEL-2 melanoma
SK-MEL-5 melanoma = test system: SK-MEL-5 melanoma
SK-OV-3 ovarian = test system: SK-OV-3 ovarian
SN12C renal = test system: SN12C renal
SNB-19 CNS = test system: SNB-19 CNS
SNB-75 CNS = test system: SNB-75 CNS
SNB-78 CNS = test system: SNB-78 CNS
SW-620 colon = test system: SW-620 colon
TK-10 renal = test system: TK-10 renal
U251 CNS = test system: U251 CNS
UACC-257 melanoma = test system: UACC-257 melanoma
UACC-62 melanoma = test system: UACC-62 melanoma
UO-31 renal = test system: UO-31 renal

Measured: TGI

N#CC1(C#N)C=CC(=C2OCC3CCCN23)C=C1 (configuration not stated)
> 100 µM: all assays above
